In the SangsterLogP compilation:

Assays:
[1] = method code SF-AS, from DOI: 10.1021/je200827u; settings: pH 5.8

| SMILES | logD [1] | logP |
| --- | --- | --- |
| O=C(NN=C1CCCCC1)c1ccncc1 |  | 0.27 |
| CCSc1nc2ccccc2n1CC | 3.43 |  |
| CC(=O)NNC(=O)c1ccncc1 |  | -0.87 |
| CC1CCC(=NNC(=O)c2ccncc2)CC1 (stereo unspecified) | 0.74 |  |
| NNC(=O)c1ccnc(NN)c1 |  | -0.57 |
| O=C(NN=C1CCCC1)c1ccncc1 | 0.22 |  |

Continued, values first:

| logD [1] | logP | SMILES |
| --- | --- | --- |
| 3.14 |  | O=[N+]([O-])c1cc(CSc2nc3ccccc3[nH]2)cc([N+](=O)[O-])c1 |
| 2.67 |  | CCSc1nc2ccccc2[nH]1 |
|  | 3.92 | c1ccc(CSc2nc3ccccc3[nH]2)cc1 |
|  | 4.9 | c1ccc(C(Sc2nc3ccccc3[nH]2)c2ccccc2)cc1 |
| 3.25 |  | CC(C)Sc1nc2ccccc2[nH]1 |
